Values of other authors as cited in patent US20140107130A1, “Oral Solution Formulations of Aripiprazole” (Antrim Pharmaceuticals, LLC, priority 2012, published 2014).

What was measured:
[1] = room temperature
[2] = intramuscular (IM) injectable solution; many water-miscible co-solvent and water-immiscible solvent/co-solvent systems

aqueous solubility [1]: < 1 µg/mL
Compound: O=C1CCc2ccc(OCCCCN3CCN(c4cccc(Cl)c4Cl)CC3)cc2N1 [Aripiprazole]
tissue irritation at the muscular site [2]: unacceptable (moderate to severe) tissue irritation
